In patent publication US11203591B2, “Substituted 6-azabenzimidazole compounds” (Gilead Sciences, Inc., priority 2018, dated 2021):

These molecules were tested against human HPK1 (MAP4K1) (Homo sapiens (Human), UniProt Q92918) (assay: HPK1 IC50 Assay (TR-FRET peptide phosphorylation)). Conditions: recombinant HPK1 kinase domain 0.15 nM, 10 μM ATP, 1 μM STK S1 peptide; geometric mean of multiple experiments.
Assay type: biochemical
Outline: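 Readout: TR-FRET (665 nm/620 nm) after EDTA stop, detecting STK S1 peptide (1 μM) phosphorylation by 0.15 nM HPK1 kinase domain, ATP-pre-activated, at 10 μM ATP over 3 h, 25° C, pH 7.0. IC50s from four-parameter variable-slope fits, normalized to staurosporine and DMSO, averaged geometrically.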

human HPK1 (MAP4K1), sequence (Q92918 17-274): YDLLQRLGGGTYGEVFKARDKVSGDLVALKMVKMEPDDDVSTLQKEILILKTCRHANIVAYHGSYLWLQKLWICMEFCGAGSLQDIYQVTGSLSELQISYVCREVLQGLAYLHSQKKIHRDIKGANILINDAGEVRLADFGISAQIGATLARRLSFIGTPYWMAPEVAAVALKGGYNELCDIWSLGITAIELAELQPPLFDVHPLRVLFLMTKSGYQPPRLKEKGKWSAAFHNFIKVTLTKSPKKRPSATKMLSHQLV

SMILES	IC50 [nM]
Cc1c(C(=O)NC2(C(F)F)CC2)cc(Nc2nc(-c3cnc4c(c3)N([C@H]3C[C@@](C)(N5CCCOCC5)C3)C(=O)C4(C)C)cc3ncn(C(C)C)c23)c(F)c1F [Example 208, N-(1-(Difluoromethyl)cyclopropyl)-5-((6-(3,3-dimethyl-1-((1s,3s)-3-methyl-3-(1,4-oxazepan-4-yl)cyclobutyl)-2-oxo-2,3-dihydro-1H-pyrrolo[3,2-b]pyridin-6-yl)-3-isopropyl-3H-imidazo[4,5-c]pyridin-4-yl)amino)-3,4-difluoro-2-methylbenzamide]	0.09
Cc1c(C(=O)NC2(C(F)F)CC2)cc(Nc2nc(-c3cnc4c(c3)N([C@H]3C[C@@](C)(N5CC6CCC6C5)C3)C(=O)C4(C)C)cc3ncn(C(C)C)c23)c(F)c1F (stereo partly shown) [Example 209, 5-((6-(1-((1s,3s)-3-(3-Azabicyclo[3.2.0]heptan-3-yl)-3-methylcyclobutyl)-3,3-dimethyl-2-oxo-2,3-dihydro-1H-pyrrolo[3,2-b]pyridin-6-yl)-3-isopropyl-3H-imidazo[4,5-c]pyridin-4-yl)amino)-N-(1-(difluoromethyl)cyclopropyl)-3,4-difluoro-2-methylbenzamide]	0.08
CC(C)n1cnc2cc(-c3cnc4c(c3)N([C@H]3C[C@@](C)(N5CCCCC5)C3)C(=O)C43CCOCC3)nc(Nc3cc(C(=O)NC4(C(F)F)CC4)c(Cl)c(F)c3F)c21 [Example 210, 2-Chloro-N-(1-(difluoromethyl)cyclopropyl)-3,4-difluoro-5-((3-isopropyl-6-(1′-((1s,3s)-3-methyl-3-(piperidin-1-yl)cyclobutyl)-2′-oxo-1′,2,2′,3,5,6-hexahydrospiro[pyran-4,3′-pyrrolo[3,2-b]pyridin]-6′-yl)-3H-imidazo[4,5-c]pyridin-4-yl)amino)benzamide]	0.08
CC(C)n1cnc2cc(-c3cnc4c(c3)N([C@H]3C[C@@](C)(N5CCCCC5)C3)C(=O)C4(C)C)nc(Nc3cc(C(=O)NC4(CF)CC4)c(Cl)c(F)c3F)c21 [Example 211, 2-Chloro-5-((6-(3,3-dimethyl-1-((1s,3s)-3-methyl-3-(piperidin-1-yl)cyclobutyl)-2-oxo-2,3-dihydro-1H-pyrrolo[3,2-b]pyridin-6-yl)-3-isopropyl-3H-imidazo[4,5-c]pyridin-4-yl)amino)-3,4-difluoro-N-(1-(fluoromethyl)cyclopropyl)benzamide]	0.1
Cc1cc(F)c(Nc2nc(-c3cnc4c(c3)N([C@H]3C[C@@](C)(N5C6CCC5COC6)C3)C(=O)C4(C)C)cc3ncn(C(C)C)c23)cc1C(=O)NC1(C(F)F)CC1 [Example 212, 5-((6-(1-((1s,3s)-3-(3-Oxa-8-azabicyclo[3.2.1]octan-8-yl)-3-methylcyclobutyl)-3,3-dimethyl-2-oxo-2,3-dihydro-1H-pyrrolo[3,2-b]pyridin-6-yl)-3-isopropyl-3H-imidazo[4,5-c]pyridin-4-yl)amino)-N-(1-(difluoromethyl)cyclopropyl)-4-fluoro-2-methylbenzamide]	0.3
CC[C@]1(N2CCCCC2)C[C@@H](N2C(=O)C(C)(C)c3ncc(-c4cc5ncn(C(C)C)c5c(Nc5cc(C(=O)NC6(C(F)F)CC6)c(C)cc5F)n4)cc32)C1 [Example 213, N-(1-(Difluoromethyl)cyclopropyl)-5-((6-(1-((1r,3s)-3-ethyl-3-(piperidin-1-yl)cyclobutyl)-3,3-dimethyl-2-oxo-2,3-dihydro-1H-pyrrolo[3,2-b]pyridin-6-yl)-3-isopropyl-3H-imidazo[4,5-c]pyridin-4-yl)amino)-4-fluoro-2-methylbenzamide]	0.3
Cc1c(C(=O)NC2(C(F)F)CC2)cc(Nc2nc(-c3cnc4c(c3)N([C@H]3C[C@@](C)(N5CCCCC5)C3)CC4(C)C)cc3ncn(C(C)C)c23)c(F)c1F [Example 214, N-(1-(Difluoromethyl)cyclopropyl)-5-((6-(3,3-dimethyl-1-((1s,3s)-3-methyl-3-(piperidin-1-yl)cyclobutyl)-2,3-dihydro-1H-pyrrolo[3,2-b]pyridin-6-yl)-3-isopropyl-3H-imidazo[4,5-c]pyridin-4-yl)amino)-3,4-difluoro-2-methylbenzamide]	0.1
